# Measured values published in article PMC3020970, “K70Q Adds High-Level Tenofovir Resistance to “Q151M Complex” HIV Reverse Transcriptase through the Enhanced Discrimination Mechanism” (PLoS ONE, 2011).
# Like-named read-outs stand apart in the source and are kept apart here.
# Key:
# Assay type in all cases: cell-based
# HIV-1 WT = test: Single-cycle drug susceptibility assay (MAGIC-5 cells), recombinant WT clone; settings: Human immunodeficiency virus 1, Table S2
# Protocol: (§1) The NL4-3-based molecular clone was constructed by replacing the pol-coding region with the HIV-1 BH10 strain. […] Each molecular clone was transfected into COS-7 cells. Cells were grown for 48 h, and culture supernatants were harvested and stored at −80°C until use.
# (§2) Susceptibilities to various RT inhibitors were determined using the MAGIC-5 cells which are HeLa cells stably transfected with a β-galactosidase gene under the control of an HIV long terminal repeat promoter, and with vectors that express the CD4 receptor and the CCR5 co-receptor under the control of the CMV promoter as described previously. Briefly, MAGIC-5 cells were infected with diluted virus stock (100 blue forming units) in the presence of increasing concentrations of RT inhibitors, cultured for 48 h, fixed, and stained with X-Gal (5-bromo-4-chloro-3-indolyl-β-D-galacto-pyranoside). The stained cells were counted under a light microscope.
# HIV-1 NL4-3 strain (WT) = test: microbe, parasite or virus in culture
# Protocol: as §2
# HIV-1 Q151Mc/K70E = test: Single-cycle drug susceptibility assay (MAGIC-5 cells)
# Protocol: as §1, §2
# HIV-1 Q151Mc/K70N = test: as above
# Protocol: as §1, §2
# HIV-1 K70T = test: as above
# Protocol: as §1, §2
# HIV-1 K70Q = test: as above; settings: Human immunodeficiency virus 1, MAGIC-5; K70Q
# Protocol: as §1, §2
# HIV-1 K70N = test: as above
# Protocol: as §1, §2
# HIV-1 K70G = test: as above
# Protocol: as §1, §2
# HIV-1 Q151Mc/K70R = test: as above
# Protocol: as §1, §2
# HIV-1 K70R = test: as above
# Protocol: as §1, §2
# HIV-1 Q151Mc = test: as above; settings: Human immunodeficiency virus 1, MAGIC-5
# Protocol: as §1, §2
# HIV-1 Q151Mc/K70G = test: as above
# Protocol: as §1, §2
# HIV-1 K70E = test: as above
# Protocol: as §1, §2
# HIV-1 Q151Mc/K70Q = test: as above
# Protocol: as §1, §2
# HIV-1 Q151Mc/K70T = test: as above
# Protocol: as §1, §2
# [1] = tested on: HIV-1 clinical isolate 2 (Q151Mc + K70Q); test: Single-cycle drug susceptibility assay (MAGIC-5 cells), clinical isolate 2; settings: Human immunodeficiency virus 1; clinical isolate 2, MAGIC-5 cells
# Protocol: (§3) HIV was isolated from fresh plasma immediately after collection of clinical samples from study participants at the outpatient clinic of the AIDS Clinical Center (ACC), International Medical Center of Japan. The Institutional Review Board approved this study (IMCJ-H13-80) and a written consent was obtained from all participants.
# as §2
# [2] = tested on: HIV-1 clinical isolate 1 (Q151Mc-containing); test: Single-cycle drug susceptibility assay (MAGIC-5 cells), clinical isolate 1; settings: Human immunodeficiency virus 1; clinical isolate 1, MAGIC-5 cells
# Protocol: as §3, §2
# [3] = Human immunodeficiency virus 1, NL43, WT, MAGIC-5 cells, Table S1, read-out: EC50
# [4] = Human immunodeficiency virus 1, NL43, MAGIC-5
smiles,measurement,setting,value
"Nc1ccn([C@@H]2CS[C@H](CO)O2)c(=O)n1 [3TC, lamivudine]",EC50,HIV-1 WT,1.4 ± 0.16 µM
same,EC50,HIV-1 NL4-3 strain (WT); [3],1.4 ± 0.15 µM
same,EC50,"HIV-1 Q151Mc/K70E; Human immunodeficiency virus 1, MAGIC-5, Q151Mc/K70E",11 ± 1.4 µM
same,Fold increase in EC50 compared to HIV-1 Q151Mc,HIV-1 Q151Mc/K70E; Q151Mc/K70E vs Q151Mc,(0.4) fold
same,EC50,"HIV-1 Q151Mc/K70N; Human immunodeficiency virus 1, MAGIC-5, Q151Mc/K70N",15 ± 1.7 µM
same,Fold increase in EC50 compared to HIV-1 Q151Mc,HIV-1 Q151Mc/K70N; Q151Mc/K70N vs Q151Mc,(0.5) fold
same,EC50,"HIV-1 K70T; Human immunodeficiency virus 1, MAGIC-5, K70T",4.3 ± 0.29 µM
same,Fold increase in EC50 compared to HIV-1 WT,HIV-1 K70T; K70T vs WT,(3.1) fold
same,EC50,HIV-1 K70Q,4.6 ± 0.53 µM
same,EC50,"HIV-1 K70N; Human immunodeficiency virus 1, MAGIC-5, K70N",2.2 ± 0.25 µM
same,Fold increase in EC50 compared to HIV-1 WT,HIV-1 K70N; K70N vs WT,(1.6) fold
same,EC50,"HIV-1 K70G; Human immunodeficiency virus 1, MAGIC-5, K70G",26 ± 0.58 µM
same,Fold increase in EC50 compared to HIV-1 WT,HIV-1 K70G; K70G vs WT,(19) fold
same,EC50,"HIV-1 Q151Mc/K70R; Human immunodeficiency virus 1, MAGIC-5, Q151Mc/K70R",16 ± 1.5 µM
same,Fold increase in EC50 compared to HIV-1 Q151Mc,HIV-1 Q151Mc/K70R; Q151Mc/K70R vs Q151Mc,(0.6) fold
same,EC50,"HIV-1 K70R; Human immunodeficiency virus 1, MAGIC-5, K70R",2.5 ± 0.46 µM
same,Fold increase in EC50 compared to HIV-1 WT,HIV-1 K70R; K70R vs WT,(1.8) fold
same,EC50,HIV-1 Q151Mc,29 ± 3.2 µM
same,EC50,"HIV-1 Q151Mc/K70G; Human immunodeficiency virus 1, MAGIC-5, Q151Mc/K70G",46 ± 2.5 µM
same,Fold increase in EC50 compared to HIV-1 Q151Mc,HIV-1 Q151Mc/K70G; Q151Mc/K70G vs Q151Mc,(1.6) fold
same,EC50,"HIV-1 K70E; Human immunodeficiency virus 1, MAGIC-5, K70E",16 ± 2.1 µM
same,Fold increase in EC50 compared to HIV-1 WT,HIV-1 K70E; K70E vs WT,(11) fold
same,EC50,"HIV-1 Q151Mc/K70Q; Human immunodeficiency virus 1, MAGIC-5, Q151Mc/K70Q",81 ± 0.08 µM
same,Fold increase in EC50 compared to HIV-1 Q151Mc,HIV-1 Q151Mc/K70Q; Q151Mc/K70Q vs Q151Mc,(2.8) fold
same,EC50,"HIV-1 Q151Mc/K70T; Human immunodeficiency virus 1, MAGIC-5, Q151Mc/K70T",12 ± 2.5 µM
same,Fold increase in EC50 compared to HIV-1 Q151Mc,HIV-1 Q151Mc/K70T; Q151Mc/K70T vs Q151Mc,(0.4) fold
"Cc1cn([C@H]2C[C@H](N=[N+]=[N-])[C@@H](CO)O2)c(=O)[nH]c1=O [AZT, zidovudine]",EC50,HIV-1 NL4-3 strain (WT); [4],0.023 ± 0.002 µM
"O=C1Nc2ccc(Cl)cc2[C@@](C#CC2CC2)(C(F)(F)F)O1 [EFV, efavirenz]",EC50,[1],> 1 µM
same,EC50,HIV-1 NL4-3 strain (WT); [3],0.002 ± 0.0001 µM
same,EC50,[2],> 1 µM
"Nc1nc(=O)n([C@@H]2CS[C@H](CO)O2)cc1F [FTC, emtricitabine]",EC50,[1],2.1 ± 0.17 µM
same,EC50,HIV-1 NL4-3 strain (WT); [4],0.4 ± 0.03 µM
same,EC50,[2],3.5 ± 0.12 µM
